Laboratory results from US11897863B2, “Indazole amine derivative, preparation method therefor and medical use thereof” (ZHEJIANG HISUN PHARMACEUTICAL CO., LTD., priority 2018, dated 2024).

Tests used:
[1] = Solubility test in phosphate buffer solution (PBS, pH7.4); format: physicochemical; conditions: PBS pH 7.4, room temperature, LC-UV
Method: 1.5 mg of the test compound was taken, and PBS was added thereto to prepare the test solution with theoretical concentration of 2 mg·mL^−1. The test solution was ultrasonicated for 10 min, and rotated on a rotating tray at room temperature for at least 8 h. After the rotation treatment, the test solution was ultrasonicated for 10 min and centrifuged at 13000 rpm for 15 min. 100 μL of supernatant was transferred to a 0.6 mL new tube for spinning and rinsing for 5 min. 500 μL of supernatant was transferred into the above rinsed 0.6 mL tube. Then the tube was centrifuged at 13000 rpm for 15 min, and the supernatant was taken (or diluted) for analysis by LC-UV. Sample concentration was quantified by standard curve fitting (3 points).

[2] = system: TNF-α secretion in THP-1 cells; test: cells; conditions: Homo sapiens, THP-1, 5 h, read-out: IC50 in inhibiting TNF-α secretion in THP-1 cells
Method: Method for Determining THP-1 Cell Activity
In this experiment, TNF-α secretion was triggered by lipopolysaccharide (LPS) incubation.
After induced differentiation under the condition of 37° C. and 5% CO2 for 48 h, adherent macrophages were produced. Then PMA supernatant was removed and PBS was used to wash the cells once. In each case, all the drugs were dissolved in 100% DMSO to obtain an initial concentration of 10 mM. The drugs were filtered with 0.22 μm sterile filter membrane before use. LPS was dissolved in PBS with an initial concentration of 1 mg/mL. During use, it was diluted to 20 μg/mL with PBS. […] 200 μL of drugs were added to each well, and 50 μL of 20 μg/ml LPS (final concentration: 4 μg/mL) was added to each well. They were incubated in a 5% CO 2 incubator at 37° C. for 5 h. […]
Determination by using TNF-α ELISA kit: the amount of TNF-α was determined by R&D System Human TNF-α ELISA kit. […] 50 μL of Stop Solution (2N sulfuric acid stop solution) was added to each well and evenly mixed, and the absorbance at 450 nm was measured with microplate reader within 30 min. Compared with the fluorescence intensity ratio of the control group, the inhibition rate of the compound at each concentration was calculated, and then the IC 50 value of the compound was calculated by fitting the nonlinear curve of logarithmic concentration-inhibition rate with GraphPad Prism5.

| Solubility in phosphate buffer solution (PBS, pH 7.4) [1] [uM] | Compound | IC50 [2] [nM] |
| --- | --- | --- |
| 6.7 | CC(C)(O)CCn1cc2cc(NC(=O)c3cccc(C(F)(F)F)n3)c(C(C)(C)O)cc2n1 [BAY-1834845] | – |
| – | CN(C)CCn1cc2cc(NC(=O)c3cccc(C(F)(F)F)n3)c(C(C)(C)O)cc2n1 [Compound 1, N-(2-(2-(dimethylamino)ethyl)-6-(2-hydroxypropan-2-yl)-2H-indazol-5-yl)-6-(trifluoromethyl)pyridin-2-carboxamide] | 55 |
